Values of other authors as cited in US10449129B2, “Encapsulates of salicylic acid and polysalicylic acid derivatives” (Biocogent, LLC, priority 2015, dated 2019).

Settings: room temperature

SMILES: O=C(O)c1ccccc1O [SA, salicylic acid]
- limit of solubility in water: approximately 0.2%
